Each structure is given as a SMILES string. Where a name gives a salt, the structure may show the parent alone.

For this assay, the system named is KRas G12D-mediated phosphorylation of ERK. The assay can be described thus: Inhibition of KRas G12D-mediated phosphorylation of ERK in AGS cells. It is filed as cell-based. The conditions noted are these: Homo sapiens; AGS cells expressing G12D, 3 hours, phospho-ERK normalized to GAPDH. The method, boiled down:
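In-cell Western: p-ERK Thr202/Tyr204 signal over GAPDH, as % of DMSO control, with IC50 from a 4-parameter curve. AGS cells seeded 40,000/well for 12-14 h, exposed to compound 3 h at 0.5% DMSO final, then formaldehyde-fixed and methanol-permeabilized.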
`Cc1c(-c2cc(O)cc3ccccc23)ncc2c(N3C[C@H]4CC[C@@H](C3)N4)nc(OC[C@@H]3CCCN3C)nc12` [Example 190, 4-(4-((1R,5S)-3,8-diazabicyclo[3.2.1]octan-3-yl)-8-methyl-2-(((S)-1-methylpyrrolidin-2-yl)methoxy)pyrido[4,3-d]pyrimidin-7-yl)naphthalen-2-ol] came in with an IC50 of 16.3 µM.

As to `Fc1c(-c2cccc3cccc(Cl)c23)ncc2c(N3CC4CCC(C3)N4)nc(OC[C@]34CCCN3C[C@H](c3ccccc3)C4)nc12` (stereo in doubt) [Example 221, 4-((1R,5S)-3,8-diazabicyclo[3.2.1]octan-3-yl)-7-(8-chloronaphthalen-1-yl)-8-fluoro-2-((2-phenyltetrahydro-1H-pyrrolizin-7a(5H)-yl)methoxy)pyrido[4,3-d]pyrimidine bis-hydrochloride salt], inhibition was half-maximal at 15.8 µM (IC50). In turn, `CC(C)N1CCC[C@H]1COc1nc(N2C[C@H]3CC[C@@H](C2)N3)c2cnc(-c3cccc4cccc(Cl)c34)c(F)c2n1` [Example 29, 4-((R,5S)-3,8-diazabicyclo[3.2.1]octan-3-yl)-7-(8-chloronaphthalen-1-yl)-8-fluoro-2-(((S)-1-isopropylpyrrolidin-2-yl)methoxy)pyrido[4,3-d]pyrimidine] displayed an IC50 of 13.6 µM. In the case of `C#Cc1c(F)ccc2cccc(-c3ncc4c(N5C[C@H]6CC[C@@H](C5)N6)nc(OCC56CCCN5CCC6)nc4c3F)c12` [Example 189, 4-((1R,5S)-3,8-diazabicyclo[3.2.1]octan-3-yl)-7-(8-ethynyl-7-fluoronaphthalen-1-yl)-8-fluoro-2-((tetrahydro-1H-pyrrolizin-7a(5H)-yl)methoxy)pyrido[4,3-d]pyrimidine], the IC50 stood at 0.0241 µM. In the case of `C#Cc1cccc2cc(O)cc(-c3ncc4c(N5C[C@H]6CC[C@@H](C5)N6)ncnc4c3F)c12` [Example 244, 4-(4-((1R,5S)-3,8-diazabicyclo[3.2.1]octan-3-yl)-8-fluoropyrido[4,3-d]pyrimidin-7-yl)-5-ethynylnaphthalen-2-ol] it was 0.763 µM; in that of `Oc1cc(-c2ncc3c(N4C[C@H]5CC[C@@H](C4)N5)nc(OCC4CCCC4)nc3c2F)c2ccccc2c1` [Example 73, 4-(4-((1R,5S)-3,8-diazabicyclo[3.2.1]octan-3-yl)-2-(cyclopentylmethoxy)-8-fluoropyrido[4,3-d]pyrimidin-7-yl)naphthalen-2-ol], greater than 5.56 µM; in that of `O[C@@H]1C[C@@H]2CN(c3nc(N4CCC4)nc4c(F)c(-c5cccc6cccc(Cl)c56)ncc34)C[C@H]1N2` [Example 152, (1R,5R,6R)-3-(2-(azetidin-1-yl)-7-(8-chloronaphthalen-1-yl)-8-fluoropyrido[4,3-d]pyrimidin-4-yl)-3,8-diazabicyclo[3.2.1]octan-6-ol], greater than 50 µM.

`OCC#Cc1cccc2cccc(-c3ncc4c(N5C[C@H]6CC[C@@H](C5)N6)nc(OCC56CCCN5CCC6)nc4c3F)c12` [Example 193, 3-(8-(4-((1R,5S)-3,8-diazabicyclo[3.2.1]octan-3-yl)-8-fluoro-2-((tetrahydro-1H-pyrrolizin-7a(5H)-yl)methoxy)pyrido[4,3-d]pyrimidin-7-yl)naphthalen-1-yl)prop-2-yn-1-ol] registered an IC50 of 8.52 µM. In the case of `O=C(OC[C@H]1CC[C@@]2(COc3nc(N4CC5CCC(C4)N5)c4cnc(-c5cccc6cccc(Cl)c56)c(F)c4n3)CCCN12)N1CCCC1` [Example 443, ((3R,7aR)-7a-(((4-(3,8-diazabicyclo[3.2.1]octan-3-yl)-7-(8-chloronaphthalen-1-yl)-8-fluoropyrido[4,3-d]pyrimidin-2-yl)oxy)methyl)hexahydro-1H-pyrrolizin-3-yl)methyl pyrrolidine-1-carboxylate], the IC50 amounted to 0.16 µM.

Regarding `CC1CCCc2cccc(-c3ncc4c(N5CC6CCC(C5)N6)nc(OC[C@@H]5CCCN5C)nc4c3F)c21` (stereo partly drawn) [Example 133, 4-((1R,5S)-3,8-diazabicyclo[3.2.1]octan-3-yl)-8-fluoro-7-(8-methyl-5,6,7,8-tetrahydronaphthalen-1-yl)-2-(((S)-1-methylpyrrolidin-2-yl)methoxy)pyrido[4,3-d]pyrimidine], it took 2.05 µM to reach half-maximal inhibition (IC50). To `CCc1ccc(O)cc1-c1ncc2c(N3C[C@H]4CC[C@@H](C3)N4)nc(OCC34CCCN3CCC4)nc2c1F` [Example 263, 3-(4-((1R,5S)-3,8-diazabicyclo[3.2.1]octan-3-yl)-8-fluoro-2-((hexahydro-1H-pyrrolizin-7a-yl)methoxy)pyrido[4,3-d]pyrimidin-7-yl)-4-ethylphenol] belongs 7.64 µM.

The compound `Oc1cc(-c2ncc3c(N4C[C@H]5CC[C@@H](C4)N5)nc(N4CCC4)nc3c2F)c2ccccc2c1` [Example 119, 4-(2-(azetidin-1-yl)-4-((1R,5S)-3,8-diazabicyclo[3.2.1]octan-3-yl)-8-fluoropyrido[4,3-d]pyrimidin-7-yl)naphthalen-2-ol 2,2,2-trifluoroacetate] displayed an IC50 of 3.7 µM. Take `Cn1nccc1COc1nc(N2C[C@H]3CC[C@@H](C2)N3)c2cnc(-c3cc(O)cc4ccccc34)c(F)c2n1` [Example 5, 4-(4-((1R,5S)-3,8-diazabicyclo[3.2.1]octan-3-yl)-8-fluoro-2-((1-methyl-1H-pyrazol-5-yl)methoxy)pyrido[4,3-d]pyrimidin-7-yl)naphthalen-2-ol]: it took 8.19 µM to reach half-maximal inhibition (IC50). In the case of `CCC1(N)CN(c2nc(N3C[C@H]4CC[C@@H](C3)N4)c3cnc(-c4cc(O)cc5ccccc45)c(F)c3n2)C1` [Example 126, 4-(2-(3-amino-3-ethylazetidin-1-yl)-4-((1R,5S)-3,8-diazabicyclo[3.2.1]octan-3-yl)-8-fluoropyrido[4,3-d]pyrimidin-7-yl)naphthalen-2-ol] it was 3.47 µM; in that of `CN1CCC[C@H]1COc1nc(N2C[C@H]3CC[C@@H](C2)N3)c2cnc(-c3cc(O)cc4cccc(Cl)c34)c(F)c2n1` [Example 63, 4-(4-((1R,5S)-3,8-diazabicyclo[3.2.1]octan-3-yl)-8-fluoro-2-(((S)-1-methylpyrrolidin-2-yl)methoxy)pyrido[4,3-d]pyrimidin-7-yl)-5-chloronaphthalen-2-ol], 0.187 µM; in that of `Cc1cccc(-c2ncc3c(N4C[C@H]5CC[C@@H](C4)N5)nc(OCC45CCCN4CCC5)nc3c2F)c1C` [Example 275, 4-((1R,5S)-3,8-diazabicyclo[3.2.1]octan-3-yl)-7-(2,3-dimethylphenyl)-8-fluoro-2-((hexahydro-1H-pyrrolizin-7a-yl)methoxy)pyrido[4,3-d]pyrimidine], 7.06 µM. To `CO[C@H]1CN2CCC[C@]2(COc2nc(N3CC4CCC(C3)N4)c3cnc(-c4cccc5cccc(Cl)c45)c(F)c3n2)C1` [Example 225, 4-((1R,5S)-3,8-diazabicyclo[3.2.1]octan-3-yl)-7-(8-chloronaphthalen-1-yl)-8-fluoro-2-((2-methoxytetrahydro-1H-pyrrolizin-7a(5H)-yl)methoxy)pyrido[4,3-d]pyrimidine bis-2,2,2-trifluoroacetate] belongs 3.06 µM.

As to `CN1C[C@H](F)C[C@H]1COc1nc(N2C[C@H]3CC[C@@H](C2)N3)c2cnc(-c3cc(O)cc4ccccc34)c(F)c2n1` [Example 16, 4-(4-((1R,5S)-3,8-diazabicyclo[3.2.1]octan-3-yl)-8-fluoro-2-(((2S,4R)-4-fluoro-1-methylpyrrolidin-2-yl)methoxy)pyrido[4,3-d]pyrimidin-7-yl)naphthalen-2-ol], it took 3.83 µM to reach half-maximal inhibition (IC50).

A word on the IC50: it is the concentration that gives 50% inhibition. Higher therefore signals lower potency.
